Measurements from US7667044B2, “Compounds for the treatment of neurological disorders” (Probiodrug AG, priority 2003, dated 2010).

What was measured:
[1] = test system: human neuroblastoma SH-SY5Y cells; assay: β-Amyloid ELISA, secreted β-amyloid peptides in conditioned medium; type: cell-based; conditions: Aβ 1-42 (FIG. 2), inhibitor 20 μM, 24 hours, untreated = 100%, read-out: Extracellular Aβ-concentration, % of control
Experimental: The human glioma cell line, U-343 and the human neuroblastoma cell line, SH-SY5Y were maintained in Dulbecco's modified Eagle's medium (DMEM) containing 10% fetal bovine serum (Gibco BRL, Karlsruhe, Germany) and incubated at 37° C. in a 5% CO2 atmosphere. Culture media contained in general 60 μg/ml gentamycin (Gibco BRL, Karlsruhe, Germany).
To quantify intracellular and extracellular concentrations of β-amyloid peptides, 1-40 and 142, U-343 and SH-SY5Y cells were cultured in 6 well plates (1.5×10^6 cells/well) and treated with specific PEP inhibitors (20 μM each) for 24 hours. For quantitation of secreted β-amyloid peptides the conditioned medium was collected and concentrated by lyophylisation. Likewise, after determination of the cell numbers/well (casy cell counter I, Schärfe System, Reutlingen, Germany), cells were lyzed with cell extraction buffer (Biosource, Solingen, Germany) according to the manufacturer's protocol. The protein concentration was determined by the method of Bradford (1976). Aliquots of 100 μl were used to quantify β-amyloid peptides 1-40 and 1-42 in quadruplicate by ELISA, (IBL, Hamburg, Germany) following the manufacturer's instructions. All obtained intracellular and extracellular concentrations were normalized to cell numbers and protein concentration, respectively.
For the calculation of the concentration of β-amyloid peptides 1-40 and 1-42 in the cell culture medium after PEP-inhibitor treatment, the basal concentration of β-amyloid peptides 1-40 and 1-42 in the cell culture medium of untreated cell samples was set to 100%. The results of the measurement of the concentration of β-amyloid peptides 1-40 and 1-42 with PEP-inhibitor treated cells are presented as % of the untreated cell samples.

[2] = target: T1, Recombinant human prolyl oligopeptidase (Homo sapiens, UniProt P48147); assay: Determination of IC50- and Ki-values of PEP-inhibitors, chromogenic substrate Cbz-Gly-L-Pro-pNA; type: biochemical; conditions: for Ki: 4 substrate and 7 inhibitor concentrations, competitive inhibition fit, pH 7.6, 30° C.; for IC50: substrate 0.15 mM Cbz-Gly-L-Pro-pNA, HEPES buffer pH 7.6, 30° C.
T1 construct: made in house; host or cells: E. coli
T1 sequence (P48147 1-710): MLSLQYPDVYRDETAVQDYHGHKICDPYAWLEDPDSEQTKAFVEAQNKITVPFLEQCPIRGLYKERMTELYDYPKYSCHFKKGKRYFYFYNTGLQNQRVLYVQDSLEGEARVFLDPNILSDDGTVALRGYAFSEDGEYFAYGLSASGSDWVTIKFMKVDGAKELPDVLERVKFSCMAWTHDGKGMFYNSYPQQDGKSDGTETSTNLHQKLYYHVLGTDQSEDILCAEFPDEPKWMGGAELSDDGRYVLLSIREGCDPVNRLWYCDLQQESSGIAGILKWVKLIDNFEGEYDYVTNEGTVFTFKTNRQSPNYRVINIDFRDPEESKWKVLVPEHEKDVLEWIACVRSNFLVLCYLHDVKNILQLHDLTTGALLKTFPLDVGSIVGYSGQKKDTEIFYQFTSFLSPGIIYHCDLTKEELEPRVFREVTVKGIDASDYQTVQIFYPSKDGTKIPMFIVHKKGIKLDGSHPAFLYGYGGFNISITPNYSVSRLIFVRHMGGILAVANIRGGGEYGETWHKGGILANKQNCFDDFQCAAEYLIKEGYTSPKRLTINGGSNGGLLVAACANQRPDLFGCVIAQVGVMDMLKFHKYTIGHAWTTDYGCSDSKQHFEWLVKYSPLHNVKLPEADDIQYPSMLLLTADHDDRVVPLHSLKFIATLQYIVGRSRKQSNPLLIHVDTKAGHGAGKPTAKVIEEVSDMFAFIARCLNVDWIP
Experimental: Recombinant human prolyl oligopeptidase was used for measurement. Recombinant expression was performed in E. coli under standard conditions as described elsewhere in the state of the art.
For activity measurements the chromogenic substrate Cbz-Gly-L-Pro-pNA was used in HEPES buffer pH 7.6 containing 50 mM HEPES, 200 mM NaCl, 1 mM EDTA, 1 mM DTT, 0.006% Brij35. Measurements were carried out at 30° C. Release of pNA were monitored continuously at 405 nm.
IC50 values were calculated using non-linear regression to a 4-parameter equation (Prism 4.0, GraphPad).
Calculations were performed by multiple non-linear regression analysis to the equation for competitive inhibition using GraFit 5.0 Software (Erithacus Software).

human glial U-343 cells = assay: IL-6 ELISA, basal secretion of IL-6 into conditioned medium; type: cell-based; conditions: inhibitor 20 μM, 24 hours, serum-free medium, untreated = 100%, read-out: Extracellular IL-6 concentration, % of untreated cells
Experimental: To analyze basal secretion of IL-6, human glial U-343 cells were cultured in 6 well plates (1.5×10^6 cells/well, Greiner) and treated with specific PEP inhibitors as indicated (20 μM each) for 24 hours in serum-free D-MEM medium (invitrogen). Aliquots of 40 μl conditioned medium were used to quantify the amount of secreted IL-6 by an human-specific IL-6 ELISA (Biosource) following the manufacturer's instructions. All data were obtained in quadruplicate. For the calculation of the IL-6 concentration in the cell culture medium after PEP-inhibitor treatment, the basal IL-6 concentration of the cell culture medium of untreated cell samples was set to 100%. The results of the measurement of the IL-6 concentration with PEP-inhibitor treated cells are presented as % of the untreated cell samples.

| Compound | activity at 20 µM [1] [%] | Ki [2] [nM] | IC50 [2] [nM] | activity at 20 µM (human glial U-343 cells) [%] |
| --- | --- | --- | --- | --- |
| C=CCOC(=O)N[C@@H](Cc1ccccc1)C(=O)N1CCC[C@H]1C(=O)c1nc2ccccc2s1 [Example 7, 2-[Aloc-L-Phe-L-Pro]Benzothiazole] | 528 | 8.2 | 9.7 | 17 |
| O=C(N[C@@H](Cc1ccccc1)C(=O)N1CCC[C@H]1C(=O)c1ccc[nH]1)OCc1ccccc1 [Example 11] | 340 | 2.9 | 7600 | 52.1 |
| O=C(N[C@@H](Cc1ccccc1)C(=O)N1CCC[C@H]1C(=O)c1nccs1)OCc1ccccc1 [Example 4, 2-[Cbz-L-Phe-L-Pro]Thiazole] | 519 | 6.8 | 15 | 14.6 |
| C[C@H](NC(=O)[C@@H](Cc1ccccc1)NC(=O)OCc1ccccc1)C(=O)c1nc2ccccc2s1 [Example 3, 2-[Cbz-L-Phe-L-Ala]Benzothiazole] | 546 |  | 1400 | 35.2 |
| CC(C)(C)OC(=O)N[C@@H](Cc1ccccc1)C(=O)N1CCC[C@H]1C(=O)c1nc2ccccc2s1 [Example 9, 2-[Boc-L-Phe-L-Pro]Benzothiazole] | 368 | 6 | 29 | 33.1 |
| O=C(N[C@H](Cc1ccccc1)C(=O)N1CCCC1C(=O)c1nc2ccccc2s1)OCc1ccccc1 (stereo partly drawn) [Example 1, 2-[Cbz-L-Phe-L-Pro]Benzothiazole] | 447 | 0.057 | 6 | 14.3 |
| C[C@H](NC(=O)OCc1ccccc1)C(=O)N1CCC[C@H]1C(=O)c1nccs1 [Example 10, 2-[Cbz-L-Ala-L-Pro]Thiazole] | 157 | 2.6 | 4.3 | 66 |
| C[C@@H](NC(=O)OCc1ccccc1)C(=O)N1CCC[C@H]1C(=O)c1nc2ccccc2s1 [Example 2, 2-[Cbz-L-Ala-L-Pro]Benzothiazole] | 123 | 0.033 | 0.12 | 20.1 |
| O=C(O)C[C@H](NC(=O)OCc1ccccc1)C(=O)N1CCC[C@H]1C(=O)c1nc2ccccc2s1 [Example 6, 2-[Cbz-L-Asp-L-Pro]Benzothiazole] | 96.2 | 12 | 17 | 58 |
| NCCCC[C@H](NC(=O)OCc1ccccc1)C(=O)N1CCC[C@H]1C(=O)c1nc2ccccc2s1 [Example 8, 2-[Cbz-L-Lys-L-Pro]Benzothiazole] | 87.5 | 0.038 | 2 | 160 |
| N=C(N)NCCC[C@H](NC(=O)OCc1ccccc1)C(=O)N1CCC[C@H]1C(=O)c1nc2ccccc2s1 [Example 5, 2-[Cbz-L-Arg-L-Pro]Benzothiazole] | 94 | 3.2 | 5.4 | 109 |
